Experimental data from publication PMC4608773, “Elisidepsin Interacts Directly with Glycosylceramides in the Plasma Membrane of Tumor Cells to Induce Necrotic Cell Death” (PLoS ONE, 2015).
Like-named read-outs stand apart in the source and are kept apart here.

Assays:
[1] = test system: HCT-116 cells; test: Electrophysiological recordings of membrane conductance (whole-cell patch-clamp); type: cell-based, human; conditions: elisidepsin 1 μM, ramps -100 mV to +120 mV, 500 ms, n = 4
Procedure: (§1) The effects of elisidepsin on membrane conductance were analyzed in HCT-116 and HCT-116-Irv cells as previously described. Experiments were performed in a small bath mounted on the stage of an inverted microscope (Nikon model TMS, Garden City, NY, USA) continuously perfused with the extracellular solution (Tyrode-glucose buffer). Ion currents were recorded at room temperature (20–22°C) using the whole-cell voltage-clamp configuration of the patch-clamp technique with an Axopatch 200B patch-clamp amplifier (Axon Instruments, Foster City, CA). Currents were filtered at 2 kHz (four-pole Bessel filter), sampled at 4 kHz. Data acquisition and command potentials were controlled by the CLAMPEX program of PCLAMP 9.2 software (Axon Instruments). Micropipettes were pulled from borosilicate glass capillary tubes (Narishige, GD-1, Tokyo, Japan) on a programmable horizontal puller (Sutter Instrument Co., San Rafael, CA, USA) and heat-polished with a microforge (Narishige). Pipette tip resistance averaged between 1 and 3 MΩ. The intracellular pipette solution contained (in mM): K-aspartate 80, KCl 50, phosphocreatine 3, KH2PO4 10, MgATP 3, HEPES-K 10, EGTA-K 5 and was adjusted to pH 7.25 with KOH. The external solution (Tyrode-glucose buffer) contained (in mM): NaCl 130, KCl 4, CaCl2 1.8, MgCl2 1, HEPES-Na 10, and glucose 10, and was adjusted to pH 7.40 with NaOH. Measurements were performed using the CLAMPFIT program of PCLAMP 9.2.

[2] = test system: HCT-116-Irv cells; test: as above; type: cell-based, human; conditions: elisidepsin 1 μM; ramps -100 mV to +120 mV, 500 ms
Procedure: as §1

[3] = Lipid overlay (dot-blot) assay with elisidepsin-biotin; type: binding, human; conditions: elisidepsin-biotin:elisidepsin 1:1 and 1:15
Procedure: Lipid extracts from cells were obtained according to the Bligh and Dyer method with slight modifications. Briefly, a cell pellet was resuspended in 1 mL of distilled water, then 3.75 mL of chloroform:methanol (1:2) was added and the suspension was mixed by vortexing two minutes; next, 1.25 mL of chloroform was added and vortexed one minute; last, 1.25 mL of NaCl 1 M was added to the suspension and vortexed one minute. The suspension was centrifuged and the bottom organic phase was collected. This solution was dried under a nitrogen stream and stored at -20°C. This extract was dissolved in a small volume of chloroform:methanol (2:1) and lipids were separated in a HPTLC (high performance thin layer chromatography) silica gel plate (Merck-Millipore, Darmstad, Germany) using a mobile phase of chloroform:methanol (8:2). Lipids were visualized by staining the plate with thioflavine S (sprayed with 10 μg mL^-1 in acetone:water (4:1) and visualized under UV light). Glycosylated lipids were visualized by orcinol staining (sprayed with orcinol 0.5% in sulphuric acid 0.5 M and developed with heat). […]
Interaction of purified lipid fractions with elisidepsin was evaluated with an overlay assay. […] Elisidepsin-biotin interactions were detected by incubation with streptavidin-HRP and subsequent chemiluminescence.

[4] = test system: HCT-116 cells; test: cells
Procedure: (§2) Cells were seeded in 96-well microtiter plates and maintained at 37°C and 5% CO2 in drug-free medium before treatment with vehicle alone or elisidepsin at the concentrations and times indicated in the text. For cell survival quantification, a colorimetric assay using SRB was used. Briefly, after treatment, cells were washed twice with phosphate buffered saline (PBS), fixed for 25 min in 1% glutaraldehyde solution, rinsed twice with PBS, stained in 0.4% SRB-1% acetic acid solution for 30 min, rinsed several times with 1% acetic acid solution, and air-dried. […] Results are expressed as percentage of control cell survival and represent the mean of at least three independent experiments. IC50, half-maximal inhibitory concentration, was used as a reference value.

[5] = test system: B16 cells; test: Cell viability assay (SRB colorimetric); type: cell-based, mouse; conditions: SRB assay; mean of three different experiments; read-out: B16 (IC50), cell growth half-maximal inhibitory concentration
Procedure: as §2

[6] = test system: GM95 cells (UGCG-deficient B16 mutant); test: Cell viability assay (SRB colorimetric); type: cell-based, mouse; conditions: negative values where GM95 is the more sensitive line
Procedure: as §2

[7] = test system: GM95-UGCG cells; conditions: read-out: mean IC50, GM95-UGCG cells; 72 h treatment (Fig 4C); SRB; at least three experiments
Procedure: as §2

[8] = test system: HCT-116-Irv cells (elisidepsin-resistant subline); test: cells
Procedure: B16 and GM95 cells were maintained in DMEM with the same supplements and conditions.
as §2

C/C=C1\NC(=O)[C@H](Cc2ccccc2)NC(=O)[C@@H](C(C)C)NC(=O)[C@@H]([C@@H](C)CC)NC(=O)[C@H](NC(=O)[C@H](NC(=O)[C@H](CCCN)NC(=O)[C@H]2CCCN2C(=O)[C@H](NC(=O)[C@@H](NC(=O)[C@@H](NC(=O)[C@H](NC(=O)CC[C@@H](C)CC)C(C)C)[C@@H](C)O)C(C)C)C(C)C)[C@@H](C)CC)[C@@H](C)OC(=O)[C@H](C(C)C)NC1=O [Elisidepsin]
Time constant of the increase of membrane conductance ([1]; holding -80 mV, 20–22°C): 107 ± 39 s
Latency between application and the beginning of the effects on membrane conductance [1]: 460 ± 163 s
Effect on membrane conductance [2]: virtually no effect
Competition with elisidepsin-biotin for lipid fraction 4 [3]: could displace the biotinylated compound
Sensitivity of HCT-116 cells to elisidepsin after pretreatment with UGCG inhibitor NB-DNJ ([4]; pretreated 48 h with NB-DNJ 200 μM, elisidepsin 30 min incubation, SRB, three experiments): increase in cell resistance
Sensitivity of HCT-116 cells to elisidepsin after pretreatment with UGCG inhibitor PDMP ([4]; pretreated 72 h with PDMP 10 μM, elisidepsin 30 min incubation, SRB, three experiments): increase in cell resistance
IC50 ([4]; read-out: HCT-116 (IC50), cell growth half-maximal inhibitory concentration, SRB assay, 96-well, mean of three different experiments, exposure time not given): 5.5 µM
IC50 ([4]; read-out: IC50 after 30 min exposure, HCT-116, 30 min exposure, SRB, mean±SD of at least three experiments): 7.7 ± 4.1 µM
IC50 [5]: 7.9 µM
RR: fold change between IC50 values from GM95 and B16 [6]: 8.9
IC50 [7]: 9 µM
RR (resistance ratio): fold change between IC50 values from HCT-116-Irv and HCT-116 ([8]; negative values where HCT-116-Irv is the more sensitive line): 14.7
IC50 ([8]; read-out: HCT-116-Irv (IC50), cell growth half-maximal inhibitory concentration, SRB assay, 96-well, mean of three different experiments, exposure time not given): 81 µM
IC50 ([8]; read-out: IC50 after 30 min exposure, HCT-116-Irv, 30 min exposure, SRB, at least three experiments): > 100 µM
IC50 ([8]; read-out: IC50 after 72 h exposure, HCT-116-Irv, 72 h exposure, SRB, mean±SD of at least three experiments): 81.5 ± 0.8 µM
